According to patent publication US9481687B2, “IRAK inhibitors and uses thereof” (Nimbus Iris, Inc., priority 2012, dated 2016):
Where a name gives a salt, the structure may show the parent alone.

Key:
IRAK4 = target: T1, IRAK4 (Homo sapiens, UniProt Q9NWZ3); experiment: IRAK-4 activity inhibition assay (Caliper); type: biochemical; details: 3.5 nM IRAK4, 37 μM ATP, 1.5 μM Peptide 8
T1 construct: purchased CARNA Bioscience 09-145
T1 sequence (Q9NWZ3 1-460): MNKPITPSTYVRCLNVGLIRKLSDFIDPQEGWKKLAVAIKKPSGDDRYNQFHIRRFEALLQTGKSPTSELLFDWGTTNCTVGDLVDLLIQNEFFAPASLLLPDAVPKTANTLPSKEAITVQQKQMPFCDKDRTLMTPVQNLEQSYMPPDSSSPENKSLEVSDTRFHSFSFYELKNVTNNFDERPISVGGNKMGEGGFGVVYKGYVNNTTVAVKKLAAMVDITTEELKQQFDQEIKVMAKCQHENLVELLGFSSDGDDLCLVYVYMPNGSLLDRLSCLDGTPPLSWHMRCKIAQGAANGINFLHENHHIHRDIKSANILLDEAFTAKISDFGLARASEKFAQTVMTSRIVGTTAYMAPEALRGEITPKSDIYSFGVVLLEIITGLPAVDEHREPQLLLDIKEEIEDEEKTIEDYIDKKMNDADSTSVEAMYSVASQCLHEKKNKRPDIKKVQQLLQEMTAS
Method: A 1× kinase base buffer was prepared from 50 mM HEPES, pH 7.5 and 0.0015% Brij-35. A stop buffer was prepared from 100 mM HEPES, pH 7.5, 0.015% Brij-35, 0.2% Coating Reagent #3, and 50 mM EDTA.
Test compound was diluted to 50× of the final desired highest inhibitor concentration in reaction by 100% DMSO. 100 ul of this compound dilution was transferred to a well in a 96-well plate.
Test compound was serially diluted by transferring 30 μl to 60 μl of 100% DMSO in the next well and so forth for a total of 10 concentrations. 100 μl of 100% DMSO was added to two empty wells for no compound control and no enzyme control in the same 96-well plate.
A new 96-well plate was marked as intermediate plate. 5 μl of compound serial dilution was transferred from source plate to the corresponding wells of the intermediate plate. 45 μl of 1× kinase base buffer (KB buffer) was added to each well of the intermediate plate. The intermediate plate was placed for 10 min on a shaker.
5 μl of each well was transferred from the 96-well intermediate plate to a 384-well plate in duplicates. For example, A1 of the 96-well plate is transferred to A1 and A2 of the 384-well plate. A2 of the 96-well plate is transferred to A3 and A4 of the 384-well plate, and so on.
IRAK4 and DTT in 1× kinase base buffer was added. The 2.5× enzyme mix contained 8.8 nM IRAK4 and 5 mM DTT.
Peptide 8, ATP, MgCl2 and MnCl2 were added in the 1× kinase base buffer. The 2.5× peptide mix contained 3.75 μM peptide 8, 92.5 μM ATP, 12.5 mM MgCl2 and 2.5 mM MnCl2.
Assay plate already contained 5 μl of compound in 10% DMSO. Added 10 μl of 2.5× enzyme solution to each well of the 384-well assay plate, except no enzyme control wells. The final concentration of IRAK4 in reaction was 3.5 nM. Added 10 μl of 1× kinase base buffer to no enzyme control wells in the assay plate. Incubated at room temperature for 10 min.
Added 10 μl of 2.5× peptide solution to each well of the 384-well assay plate. The final concentration of Peptide 8 and ATP was 1.5 μM and 37 μM, respectively. Incubated at 28° C. for 40 minutes. Added 25 μl of stop buffer to stop reaction. Collected data on Caliper.
Copied conversion % data from Caliper program. Converted conversion % values to percent inhibition values. Percent inhibition=(max−conversion %)/(max−min)*100, where “max” means the conversion % of DMSO control and “min” means the conversion % of no enzyme control.

THP-1 cells [1] = experiment: LPS-induced cytokine production assay, TNFα; type: cell-based; details: Homo sapiens, 300 ng/mL LPS, 5 hours, read-out: TNF (5 h)
Method: (§1) Provided compounds were also assayed in an LPS (Lipopolysacharide) or R848 (TLR-7 agonist) induced cytokine (e.g. TNFα and IL8) production assay in THP-1 cells, human peripheral blood mononuclear cells (hPBMC), and whole blood. The exemplary protocol for this assay in THP-1 cells was as follows below.
(§2) THP-1 cells from ATCC (TIB-202) were cultured in RPMI Medium 1640 (Invitrogen, Cat No. A10491-01), 10% fetal bovine serum (Invitrogen, Cat No. 10099141, Lot No. 8172882) containing 100 U/mL Penicillin, 100 μg/mL streptomycin (Invitrogen, Cat No. 15140-122), and 50 uM 2-Mercaptoethanol (Invitrogen, Cat No. 21985023). LPS-EK ultra pure (Invivogen, Cat No. tlrl-peklps) was used to induce IL8 and TNFα production, that is detected in the cell culture supernatant by IL8 HTRF kit (Cisbio, Cat No. 62IL8PEB) and TNFα HTRF kit (Cisbio, Cat No. 62TNFPEB), as per manufacturer instructions. Cells were cultured in 96 well assay plates at 100,000 cells per well, and compounds diluted in final 0.3% DMSO were pre-incubated with cells for 1 hour prior to stimulation with 300 ng/mL LPS. Cytokine production in cell supernatant was measured at 5 hours for TNFα and IL8 production, and for 16 hours for IL8 production and assessment of cell viability.

THP-1 cells [2] = experiment: LPS-induced cytokine production assay, IL8; type: cell-based; details: Homo sapiens, 300 ng/mL LPS, 16 hours, read-out: IL-8 (16 h)
Method: as §1, §2

| Compound | IC50 (IRAK4) [nM] | IC50 (THP-1 cells [1]) [nM] | IC50 (THP-1 cells [2]) [nM] |
| --- | --- | --- | --- |
| NC(=O)c1ccc2sc3ncnc(N[C@H]4CC[C@H](N5CCOCC5)CC4)c3c2c1 [I-1, 4-(((1r,4r)-4-morpholinocyclohexyl)amino)benzo[4,5]thieno[2,3-d]pyrimidine-6-carboxamide] | ≤ 100 | ≤ 1000 | ≤ 1000 |
| CN(C)[C@H]1CC[C@H](Nc2ncnc3sc4ccccc4c23)CC1 [I-2, (1r,4r)-N1-(benzo[4,5]thieno[2,3-d]pyrimidin-4-yl)-N4,N4-dimethylcyclohexane-1,4-diamine] | ≤ 100 | ≤ 1000 | ≤ 1000 |
| CN(CC(=O)N1CCCC1)[C@H]1CC[C@H](Nc2ncnc3sc4ccccc4c23)CC1 [I-3, 2-(((1r,4r)-4-(benzo[4,5]thieno[2,3-d]pyrimidin-4-ylamino)cyclohexyl)(methyl)amino)-1-(pyrrolidin-1-yl)ethanone] | ≤ 100 | ≥ 1000 | ≤ 1000 |
| c1ccc2c(c1)sc1ncnc(N[C@H]3CC[C@H](N4CCOCC4)CC3)c12 [I-4, N-((1r,4r)-4-morpholinocyclohexyl)benzo[4,5]thieno[2,3-d]pyrimidin-4-amine] | ≤ 100 | ≤ 1000 | ≤ 1000 |
| CCOC(=O)c1ccc2sc3ncnc(N[C@H]4CC[C@H](N(C)C)CC4)c3c2c1 [I-5, ethyl 4-(((1r,4r)-4-(dimethylamino)cyclohexyl)amino)benzo[4,5]thieno[2,3-d]pyrimidine-6-carboxylate] | ≤ 100 | ≤ 1000 | ≤ 1000 |
| CN(C)[C@H]1CC[C@H](Nc2ncnc3sc4ccc(C(N)=O)cc4c23)CC1 [I-6, 4-(((1r,4r)-4-(dimethylamino)cyclohexyl)amino)benzo[4,5]thieno[2,3-d]pyrimidine-6-carboxamide] | ≤ 100 | ≥ 1000 | ≤ 1000 |
| CN(C)[C@H]1CC[C@H](Nc2ncnc3sc4ccc(CO)cc4c23)CC1 [I-7, (4-(((1r,4r)-4-(dimethylamino)cyclohexyl)amino)benzo[4,5]thieno[2,3-d]pyrimidin-6-yl)methanol] | 100 to 1000 | ≥ 1000 | ≤ 1000 |
| CCOC(=O)c1ccc2sc3ncnc(N[C@H]4CC[C@H](N5CCOCC5)CC4)c3c2c1 [I-8, Ethyl 4-(((1r,4r)-4-morpholinocyclohexyl)amino)benzo[4,5]thieno[2,3-d]pyrimidine-6-carboxylate] | 100 to 1000 | – | – |
| CN[C@H]1CC[C@H](Nc2ncnc3sc4ccccc4c23)CC1 [I-9, (1r,4r)-N1-(benzo[4,5]thieno[2,3-d]pyrimidin-4-yl)-N4-methylcyclohexane-1,4-diamine] | 100 to 1000 | ≥ 1000 | ≤ 1000 |
| OCc1ccc2sc3ncnc(N[C@H]4CC[C@H](N5CCOCC5)CC4)c3c2c1 [I-10, (4-(((1r,4r)-4-morpholinocyclohexyl)amino)benzo[4,5]thieno[2,3-d]pyrimidin-6-yl)methanol] | 100 to 1000 | – | – |
| N[C@H]1CC[C@H](Nc2ncnc3sc4ccccc4c23)CC1 [I-11, (1r,4r)-N1-(benzo[4,5]thieno[2,3-d]pyrimidin-4-yl)cyclohexane-1,4-diamine hydrochloride] | 100 to 1000 | – | – |
| CN(C)[C@H]1CC[C@H](Oc2ncnc3sc4ccccc4c23)CC1 [I-12, (1r,4r)-4-(benzo[4,5]thieno[2,3-d]pyrimidin-4-yloxy)-N,N-dimethylcyclohexanamine] | 100 to 1000 | – | – |
| OCCc1ccc2sc3ncnc(O[C@H]4CC[C@H](N5CCOCC5)CC4)c3c2c1 [I-13, 2-(4-(((1r,4r)-4-morpholinocyclohexyl)oxy)benzo[4,5]thieno[2,3-d]pyrimidin-6-yl)ethanol] | 100 to 1000 | – | – |
| CNC(=O)c1ccc2sc3ncnc(N[C@H]4CC[C@H](N(C)C)CC4)c3c2c1 [I-14, 4-(((1r,4r)-4-(dimethylamino)cyclohexyl)amino)-N-methylbenzo[4,5]thieno[2,3-d]pyrimidine-6-carboxamide] | 100 to 1000 | – | – |
| OCCc1ccc2sc3ncnc(N[C@H]4CC[C@H](N5CCOCC5)CC4)c3c2c1 [I-15, 2-(4-(((1r,4r)-4-morpholinocyclohexyl)amino)benzo[4,5]thieno[2,3-d]pyrimidin-6-yl)ethanol] | 100 to 1000 | – | – |
| c1ccc2c(c1)sc1ncnc(O[C@H]3CC[C@H](N4CCOCC4)CC3)c12 [I-16, 4-((1r,4r)-4-(benzo[4,5]thieno[2,3-d]pyrimidin-4-yloxy)cyclohexyl)morpholine] | 100 to 1000 | – | – |

Now from value to molecule:

| IC50 (IRAK4) [nM] | IC50 (THP-1 cells [1]) [nM] | IC50 (THP-1 cells [2]) [nM] | Compound |
| --- | --- | --- | --- |
| 100 to 1000 | – | – | CCNC(=O)c1ccc2sc3ncnc(N[C@H]4CC[C@H](N(C)C)CC4)c3c2c1 [I-17, 4-(((1r,4r)-4-(dimethylamino)cyclohexyl)amino)-N-ethylbenzo[4,5]thieno[2,3-d]pyrimidine-6-carboxamide] |
| 1000 to 10000 | – | – | NC(=O)Cc1ccc2sc3ncnc(N[C@H]4CC[C@H](N5CCOCC5)CC4)c3c2c1 [I-18, 2-(4-(((1r,4r)-4-morpholinocyclohexyl)amino)benzo[4,5]thieno[2,3-d]pyrimidin-6-yl)acetamide] |
| 1000 to 10000 | – | – | CN(C)C(=O)c1ccc2sc3ncnc(N[C@H]4CC[C@H](N(C)C)CC4)c3c2c1 [I-19, 4-(((1r,4r)-4-(dimethylamino)cyclohexyl)amino)-N,N-dimethylbenzo[4,5]thieno[2,3-d]pyrimidine-6-carboxamide] |
| 1000 to 10000 | – | – | CN(C)C(=O)c1ccc2sc3ncnc(N[C@H]4CC[C@H](N5CCOCC5)CC4)c3c2c1 [I-20, N,N-dimethyl-4-(((1r,4r)-4-morpholinocyclohexyl)amino)benzo[4,5]thieno[2,3-d]pyrimidine-6-carboxamide] |
| 1000 to 10000 | – | – | CCOC(=O)Cc1ccc2sc3ncnc(N[C@H]4CC[C@H](N5CCOCC5)CC4)c3c2c1 [I-21, Ethyl 2-(4-(((1r,4r)-4-morpholinocyclohexyl)amino)benzo[4,5]thieno[2,3-d]pyrimidin-6-yl)acetate] |
| ≥ 10000 | – | – | CCOC(=O)c1cccc2sc3ncnc(N[C@H]4CC[C@H](N(C)C)CC4)c3c12 [I-22, ethyl 4-(((1r,4r)-4-(dimethylamino)cyclohexyl)amino)benzo[4,5]thieno[2,3-d]pyrimidine-5-carboxylate] |
| ≥ 10000 | – | – | CN(C)[C@H]1CC[C@H](Nc2ncnc3sc4cccc(CO)c4c23)CC1 [I-23, (4-(((1r,4r)-4-(dimethylamino)cyclohexyl)amino)benzo[4,5]thieno[2,3-d]pyrimidin-5-yl)methanol] |
